# In patent US10758517B2, “mPGES-1 inhibitor for the treatment of osteoarthritis pain” (Glenmark Pharmaceuticals S.A., priority 2017, dated 2020):
# What was measured:
# LPS-induced PGE2 release [1] = test: Ex vivo LPS-induced PGE2 release in whole blood, single ascending oral doses (Example 1, Part 1a); parameters: species or system human; conditions: for EAUC0-24 h, Difference in LS mean versus placebo / EAUC0-24 h, LS mean / EAUC0-336 h, Difference in LS mean versus placebo / EAUC0-336 h, LS mean / ETmax (time to reach maximum effect), Median / ETmax, Median difference versus placebo / Epeak (maximum % inhibition), LS mean / Epeak, Difference in LS mean versus placebo: fasted healthy subjects
# Experimental: In Part 1a, single doses of Compound I of 10 mg (Group A), 30 mg (Group B), 100 mg (Group C), 250 mg (Group D), 500 mg (Group E) and 1000 mg (Group F) were administered after fasting. In each dose group, 6 subjects received Compound I and 2 subjects received placebo.
# (§1) In Parts 1a and 3, whole blood samples were incubated and analyzed for lipopolysaccharide (LPS)-induced prostaglandin PGE2 release. In Part 3, urine samples were collected for analysis of prostanoid metabolites.
# (§2) Summary statistics were presented for the PK, pharmacodynamic (PD) and safety data, as appropriate. PK parameters following single oral doses of Compound I were determined from the plasma concentrations of Compound I using non-compartmental procedures in WinNonlin Dose proportionality was assessed using a power model, with tmax analyzed using the Kruskal-Wallis test. The effect of food on PK was assessed at the 100 and 250 mg doses using a mixed effects model. The effect of age on PK was assessed for elderly (>65 years) versus non-elderly (<65 years) at the 250 mg dose level in Parts 1a and 2, using an analysis of variance (ANOVA) with age as a fixed effect. For PD analyses, percent decrease of ex vivo LPS-induced PGE2 release was calculated. For Part 3, urinary excretion of prostanoid metabolites was also evaluated. The data are presented as absolute, as well as creatinine normalized urinary biomarker amounts, along percent change from baseline over a definite time interval. The percent change from baseline in urinary biomarkers was assessed using an analysis of covariance (ANCOVA) model
# (§3) Percent change in ex vivo LPS-induced PGE2 release in whole blood is the pharmacodynamic (PD) biomarker. The PGE2 levels in whole blood were estimated using the homogeneous time-resolved fluorescence method.
# (§4) Concentrations below the limit of quantification were treated as ½ the lower limit of quantification for calculation.
# Time points where unstimulated PGE2 concentration was more than 3 times greater than the mean unstimulated PGE2 and equal to or greater than ½ baseline value for an individual subject were not included in the calculation of percent inhibition. If pre-dose LPS-induced PGE2 was less than unstimulated PGE2, the value was not used for calculation of percent inhibition.
# LPS-induced PGE2 release [2] = test: Ex vivo LPS-induced PGE2 release in whole blood, single dose crossover versus celecoxib (Example 1, Part 3); parameters: species or system human
# Experimental: Part 2 was a single-dose, double-blind study in a single cohort of elderly subjects. Part 3 was an open-label, randomized, 2-period, single-dose, crossover study to compare effects of the highest tolerated Compound I dose and celecoxib on prostanoid metabolism in healthy adult subjects.
# In Part 3, Compound I was administered at a dose of 1000 mg after fasting. All subjects received Compound I and all subjects received 400 mg celecoxib in a cross-over study design.
# as §1, §2, §3, §4
# Time points where unstimulated prostaglandin E2 (PGE2) concentration was more than 3 times greater than the mean unstimulated PGE2 and equal to or greater than ½ baseline value for an individual subject were not included in the calculation of % inhibition.
# [3] = Compound I 1000 mg versus celecoxib 400 mg, single oral doses, fasted
# [4] = single oral dose 1000 mg, fasted healthy subjects
smiles,measurement,setting,value
"CC(C)(C)C(=O)NCc1ccc(Cl)c(-c2nn(-c3ccc(C(F)(F)F)cc3)c(=O)[nH]2)c1 [Compound I, N-(4-chloro-3-(5-oxo-1-(4-(trifluoromethyl)phenyl)-4,5-dihydro-1H-1,2,4-triazol-3-yl)benzyl)pivalamide]",persistence of inhibition,LPS-induced PGE2 release [1]; 1000 mg single dose,still apparent at 336 hours
same,time for which near maximal inhibition was retained,LPS-induced PGE2 release [1]; 250 and 500 mg single doses,at least 168 hours
same,time for which reduction in PGE2 release was apparent,"LPS-induced PGE2 release [1]; lower doses, post-dose",approximately 24 hours
same,"EAUC0-24 h, Difference in LS mean versus placebo",LPS-induced PGE2 release [1]; single oral dose 10 mg,956 % · h
same,"EAUC0-24 h, LS mean",LPS-induced PGE2 release [1]; single oral dose 10 mg,898 % · h
same,"EAUC0-336 h, Difference in LS mean versus placebo",LPS-induced PGE2 release [1]; single oral dose 10 mg,−5321 % · h
same,"EAUC0-336 h, LS mean",LPS-induced PGE2 release [1]; single oral dose 10 mg,−3824 % · h
same,"ETmax (time to reach maximum effect), Median",LPS-induced PGE2 release [1]; single oral dose 10 mg,4.00 h
same,"ETmax, Median difference versus placebo",LPS-induced PGE2 release [1]; single oral dose 10 mg,-8.02 h
same,"Epeak (maximum % inhibition), LS mean",LPS-induced PGE2 release [1]; single oral dose 10 mg,77.7%
same,"Epeak, Difference in LS mean versus placebo",LPS-induced PGE2 release [1]; single oral dose 10 mg,9.90%
same,"EAUC0-24 h, Difference in LS mean versus placebo",LPS-induced PGE2 release [1]; single oral dose 30 mg,1028 % · h
same,"EAUC0-24 h, LS mean",LPS-induced PGE2 release [1]; single oral dose 30 mg,970 % · h
same,"EAUC0-336 h, Difference in LS mean versus placebo",LPS-induced PGE2 release [1]; single oral dose 30 mg,7240 % · h
same,"EAUC0-336 h, LS mean",LPS-induced PGE2 release [1]; single oral dose 30 mg,8736 % · h
same,"ETmax (time to reach maximum effect), Median",LPS-induced PGE2 release [1]; single oral dose 30 mg,3.04 h
same,"ETmax, Median difference versus placebo",LPS-induced PGE2 release [1]; single oral dose 30 mg,-8.98 h
same,"Epeak (maximum % inhibition), LS mean",LPS-induced PGE2 release [1]; single oral dose 30 mg,72.8%
same,"Epeak, Difference in LS mean versus placebo",LPS-induced PGE2 release [1]; single oral dose 30 mg,4.94%
same,"EAUC0-24 h, Difference in LS mean versus placebo",LPS-induced PGE2 release [1]; single oral dose 100 mg,1709 % · h
same,"EAUC0-24 h, LS mean",LPS-induced PGE2 release [1]; single oral dose 100 mg,1650 % · h
same,"EAUC0-336 h, Difference in LS mean versus placebo",LPS-induced PGE2 release [1]; single oral dose 100 mg,10115 % · h
same,"EAUC0-336 h, LS mean",LPS-induced PGE2 release [1]; single oral dose 100 mg,11612 % · h
same,"ETmax (time to reach maximum effect), Median",LPS-induced PGE2 release [1]; single oral dose 100 mg,7.02 h
same,"ETmax, Median difference versus placebo",LPS-induced PGE2 release [1]; single oral dose 100 mg,-7.50 h
same,"Epeak (maximum % inhibition), LS mean",LPS-induced PGE2 release [1]; single oral dose 100 mg,91.6%
same,"Epeak, Difference in LS mean versus placebo",LPS-induced PGE2 release [1]; single oral dose 100 mg,23.8%
same,"EAUC0-24 h, Difference in LS mean versus placebo",LPS-induced PGE2 release [1]; single oral dose 250 mg,1608 % · h
same,"EAUC0-24 h, LS mean",LPS-induced PGE2 release [1]; single oral dose 250 mg,1550 % · h
same,"EAUC0-336 h, Difference in LS mean versus placebo",LPS-induced PGE2 release [1]; single oral dose 250 mg,12965 % · h
same,"EAUC0-336 h, LS mean",LPS-induced PGE2 release [1]; single oral dose 250 mg,14461 % · h
same,"ETmax (time to reach maximum effect), Median",LPS-induced PGE2 release [1]; single oral dose 250 mg,2.03 h
same,"ETmax, Median difference versus placebo",LPS-induced PGE2 release [1]; single oral dose 250 mg,-9.94 h
same,"Epeak (maximum % inhibition), LS mean",LPS-induced PGE2 release [1]; single oral dose 250 mg,92.8%
same,"Epeak, Difference in LS mean versus placebo",LPS-induced PGE2 release [1]; single oral dose 250 mg,24.9%
same,"EAUC0-24 h, Difference in LS mean versus placebo",LPS-induced PGE2 release [1]; single oral dose 500 mg,1766 % · h
same,"EAUC0-24 h, LS mean",LPS-induced PGE2 release [1]; single oral dose 500 mg,1707 % · h
same,"EAUC0-336 h, Difference in LS mean versus placebo",LPS-induced PGE2 release [1]; single oral dose 500 mg,16417 % · h
same,"EAUC0-336 h, LS mean",LPS-induced PGE2 release [1]; single oral dose 500 mg,17914 % · h
same,"ETmax (time to reach maximum effect), Median",LPS-induced PGE2 release [1]; single oral dose 500 mg,12.0 h
same,"ETmax, Median difference versus placebo",LPS-induced PGE2 release [1]; single oral dose 500 mg,-0.0333 h
same,"Epeak (maximum % inhibition), LS mean",LPS-induced PGE2 release [1]; single oral dose 500 mg,87.7%
same,"Epeak, Difference in LS mean versus placebo",LPS-induced PGE2 release [1]; single oral dose 500 mg,19.9%
same,"EAUC0-24 h, Difference in LS mean versus placebo",LPS-induced PGE2 release [1]; single oral dose 1000 mg,1086 % · h
same,"EAUC0-24 h, LS mean",LPS-induced PGE2 release [1]; single oral dose 1000 mg,1028 % · h
same,"EAUC0-336 h, Difference in LS mean versus placebo",LPS-induced PGE2 release [1]; single oral dose 1000 mg,17780 % · h
same,"EAUC0-336 h, LS mean",LPS-induced PGE2 release [1]; single oral dose 1000 mg,19277 % · h
same,"ETmax (time to reach maximum effect), Median",LPS-induced PGE2 release [1]; single oral dose 1000 mg,144 h
same,"ETmax, Median difference versus placebo",LPS-induced PGE2 release [1]; single oral dose 1000 mg,112 h
same,"Epeak (maximum % inhibition), LS mean",LPS-induced PGE2 release [1]; single oral dose 1000 mg,81.8%
same,"Epeak, Difference in LS mean versus placebo",LPS-induced PGE2 release [1]; single oral dose 1000 mg,14.0%
same,inhibition of ex vivo LPS-induced PGE2 release (in words),LPS-induced PGE2 release [1]; single oral doses from 10 mg to 1000 mg,marked dose-dependent inhibition
same,"EAUC0-24 h, Difference in LS mean versus celecoxib",LPS-induced PGE2 release [2]; [3],7.89 % · h
same,"EAUC0-336 h, Difference in LS mean versus celecoxib",LPS-induced PGE2 release [2]; [3],19024 % · h
same,"ETmax, Median difference versus celecoxib",LPS-induced PGE2 release [2]; [3],6.00 h
same,"Epeak, Difference in LS mean versus celecoxib",LPS-induced PGE2 release [2]; [3],−1.87%
same,"EAUC0-24 h, LS mean",LPS-induced PGE2 release [2]; [4],1428 % · h
same,"EAUC0-336 h, LS mean",LPS-induced PGE2 release [2]; [4],8866 % · h
same,"ETmax (time to reach maximum effect), Median",LPS-induced PGE2 release [2]; [4],12.0 h
same,"Epeak (maximum % inhibition), LS mean",LPS-induced PGE2 release [2]; [4],87.2%
same,inhibition of LPS-induced PGE2 concentration,"LPS-induced PGE2 release [2]; single oral dose 1000 mg, maintained for at least 168 hours post-dose",approximately 50%
